Source: patent US20130131321A1, “LIGANDS FOR ANTIBODY AND Fc-FUSION PROTEIN PURIFICATION BY AFFINITY CHROMATOGRAPHY” (GRAFFINITY PHARMACEUTICALS GMBH, priority 2010, published 2013)
Read-outs that look alike come from different tables or passages of the source.

Tests used:
Palivizumab = assay: Microtiter plate chromatography of resins, Palivizumab (bound, yield); type: binding, humanized
Experimental: (§1) Resins were assessed in packed mode by microtiter plate chromatography. For each column, approximately 30 μl of resin were transferred to a 384-well filter plate and sealed with appropriate top frits.
(§2) Columns were equilibrated with 6.7 column volumes (cv) of phosphate buffered saline (0.15 M NaCl, 20 mM sodium phosphate, pH 7.3; PBS) prior to injection. Either 3.3 cv of whole IgGs dissolved at 0.75 mg ml^−1, Fab or Fc fragments dissolved at 0.25 mg ml^−1 (all three in PBS) or host cell proteins (HCP) were injected onto columns. Antibody fragments of Bevacizumab (Fab and Fc) were prepared by cleavage of whole IgG with papain protease (3) according to the protocol of the manufacturer. […] Volumes transferred were spun through columns at 50 g for 1-2 min. During injection of samples, acceleration was reduced to 10 g and centrifugation time increased to 5-10 min. Effluent fractions were collected in 384-well plates and concentrations of protein analyzed by Bradford assay. Protein masses mi, mft and me (see below) were calculated as the product of fraction volume and measured protein concentration.
(§3) The fraction of ‘bound’ protein was calculated as the difference between the total mass of protein injected mi and the mass of protein detected in the flowthrough mft, divided by the total mass of protein injected.
(§4) The ‘yield’ of protein was calculated as the mass of protein eluted me, divided by the mass of protein injected mi.
(§5) the fraction of ‘bound’ protein and the ‘yield’ of protein were calculated for each resin based on data for whole IgG-antibodies. In the case of Bevacizumab fragments and host cell proteins, only the fraction of ‘bound’ protein is given. Selectivity of resins was calculated from data for Bevacizumab Whole IgG and host cell proteins. Due to limited experimental precision, selectivity was truncated beyond values of 10.

host cell proteins (HCP) = assay: Microtiter plate chromatography of resins, host cell proteins (bound); type: binding, CHO
Experimental: Flowthrough from protein A chromatography (referred to as host cell proteins) was derived from the supernatant of antibody-producing CHO cell culture in serum-free medium.
as §1, §2, §3, §5

Bevacizumab [1] = assay: Microtiter plate chromatography of resins, Bevacizumab whole IgG (bound, yield, selectivity); type: binding, humanized
Experimental: as §1, §2, §3, §4
(§6) The ‘selectivity’ of resins was calculated as the fraction of bound antibody BAb, divided by the fraction of bound host cell proteins BHCP.
as §5

Bevacizumab [2] = target: T1, Bevacizumab (Homo sapiens, UniProt P01857); assay: as above; type: binding, humanized
T1 construct: fused on or other part: humanised anti-VEGF-A VH domain N-terminal of the gamma-1 constant region (engineered, no UniProt entry)
Experimental: as §1, §2, §3, §4, §6, §5

Tocilizumab = assay: Microtiter plate chromatography of resins, Tocilizumab (bound, yield); type: binding, humanized
Experimental: as §1, §2, §3, §4, §5

[3] = system: human poly-IgG (h-poly-IgG); assay: Microtiter plate chromatography of resins, human poly-IgG (bound, yield); type: binding
Experimental: as §1, §2, §3, §4, §5

[4] = fraction of whole IgG Bevacizumab bound to resin
[5] = mass of whole IgG Bevacizumab eluted / mass injected
[6] = fraction of injected protein bound to resin
[7] = fraction of injected host cell proteins bound to resin
[8] = bound Bevacizumab whole IgG / bound HCP, truncated beyond values of 10
[9] = fraction of injected whole IgG bound to resin
[10] = mass eluted / mass injected, whole IgG

COc1ccc(NC(=O)c2cc(-c3ccccc3)n(C)n2)cc1C(=O)NCCCN [Ligand L15, 2-Methoxy-5-(1-methyl-5-phenylpyrazol-3-yl)carboxamidobenzoic acid N-(3-aminopropyl)amide]
Palivizumab Bound (%) (Palivizumab): 100% | Palivizumab Yield (%) (Palivizumab): 90% | HCP Bound (%) (host cell proteins (HCP); host cell proteins): 64% | Selectivity (Bevacizumab [1]): 1.6 | Bevacizumab IgG Bound (%) (Bevacizumab [2]; [4]): 99% | Bevacizumab IgG Yield (%) (Bevacizumab [2]; [5]): 94% | Tocilizumab Bound (%) (Tocilizumab): 100% | Tocilizumab Yield (%) (Tocilizumab): 98% | h-poly-IgG Bound (%) [3]: 98% | h-poly-IgG Yield (%) [3]: 83%

COc1ccc(NC(=O)c2cc(-c3csc(C)n3)on2)cc1C(=O)NCCOCCOCC(=O)NCCOCCOCC(=O)NCCCN [Ligand L68, 8-{8-{2-Methoxy-5-[5-(2-methylthiazol-4-yl)isoxazol-3-ylcarboxamido]phenylcarboxamido}-3,6-dioxaoctanoylamido}-3,6-dioxaoctanoic acid (3-amino-1-propyl)amide]
Palivizumab Bound (%) (Palivizumab; [6]): 65% | Palivizumab Yield (%) (Palivizumab; mass eluted / mass injected): 65% | HCP Bound (%) (host cell proteins (HCP); [7]): 4% | Selectivity (Bevacizumab [1]; [8]): 10.0 | Bevacizumab IgG Bound (%) (Bevacizumab [2]; [9]): 100% | Bevacizumab IgG Yield (%) (Bevacizumab [2]; [10]): 100% | Tocilizumab Bound (%) (Tocilizumab; [6]): 71% | Tocilizumab Yield (%) (Tocilizumab; mass eluted / mass injected): 71% | h-poly-IgG Bound (%) [3, 6]: 65% | h-poly-IgG Yield (%) ([3]; mass eluted / mass injected): 65%

Cn1nc(C(=O)Nc2nc(C(=O)NCCCN)cs2)cc1-c1cccs1 [Ligand L19, 2-[1-Methyl-5-(2-thienyl)pyrazol-3-yl]carboxamidothiazole-4-carboxylic acid N-(3-aminopropyl)amide]
Palivizumab Bound (%) (Palivizumab): 18% | Palivizumab Yield (%) (Palivizumab): 16% | HCP Bound (%) (host cell proteins (HCP); host cell proteins): 56% | Selectivity (Bevacizumab [1]): 1.8 | Bevacizumab IgG Bound (%) (Bevacizumab [2]; [4]): 100% | Bevacizumab IgG Yield (%) (Bevacizumab [2]; [5]): 99% | Tocilizumab Bound (%) (Tocilizumab): 47% | Tocilizumab Yield (%) (Tocilizumab): 48% | h-poly-IgG Bound (%) [3]: 49% | h-poly-IgG Yield (%) [3]: 48%

COc1ccc(NC(=O)c2n[nH]c3ccccc23)cc1C(=O)NCCCN [Ligand L36, 5-(Indazol-3-yl)carboxamido-2-methoxybenzoic acid N-(3-aminopropyl)amide]
Palivizumab Bound (%) (Palivizumab): 100% | Palivizumab Yield (%) (Palivizumab): 100% | HCP Bound (%) (host cell proteins (HCP); host cell proteins): 54% | Selectivity (Bevacizumab [1]): 1.9 | Bevacizumab IgG Bound (%) (Bevacizumab [2]; [4]): 100% | Bevacizumab IgG Yield (%) (Bevacizumab [2]; [5]): 100% | Tocilizumab Bound (%) (Tocilizumab): 100% | Tocilizumab Yield (%) (Tocilizumab): 95% | h-poly-IgG Bound (%) [3]: 95% | h-poly-IgG Yield (%) [3]: 77%

COc1ccc(NC(=O)c2nnc(-c3ccco3)o2)cc1C(=O)NCCOCCOCC(=O)NCCOCCOCC(=O)NCCCN [Ligand L67, 8-{8-{5-[5-(2-Furyl)-1,3,4-oxadiazol-2-ylcarboxamido]-2-methoxyphenylcarboxamido}-3,6-dioxaoctanoylamido}-3,6-dioxaoctanoic acid (3-amino-1-propyl)amide]
Palivizumab Bound (%) (Palivizumab; [6]): 81% | Palivizumab Yield (%) (Palivizumab; mass eluted / mass injected): 80% | HCP Bound (%) (host cell proteins (HCP); [7]): 2% | Selectivity (Bevacizumab [1]; [8]): 10.0 | Bevacizumab IgG Bound (%) (Bevacizumab [2]; [9]): 100% | Bevacizumab IgG Yield (%) (Bevacizumab [2]; [10]): 100% | Tocilizumab Bound (%) (Tocilizumab; [6]): 91% | Tocilizumab Yield (%) (Tocilizumab; mass eluted / mass injected): 86% | h-poly-IgG Bound (%) [3, 6]: 89% | h-poly-IgG Yield (%) ([3]; mass eluted / mass injected): 87%

COc1ccc(C(=O)Nc2nn(C)c3ccccc23)cc1C(=O)NCCCN [Ligand L39, 5-[N-(1-Methylindazol-3-yl)carbamoyl]-2-methoxybenzoic acid (3-amino-1-propyl)amide]
Palivizumab Bound (%) (Palivizumab): 100% | Palivizumab Yield (%) (Palivizumab): 100% | HCP Bound (%) (host cell proteins (HCP); host cell proteins): 35% | Selectivity (Bevacizumab [1]): 2.9 | Bevacizumab IgG Bound (%) (Bevacizumab [2]; [4]): 100% | Bevacizumab IgG Yield (%) (Bevacizumab [2]; [5]): 100% | Tocilizumab Bound (%) (Tocilizumab): 100% | Tocilizumab Yield (%) (Tocilizumab): 100% | h-poly-IgG Bound (%) [3]: 100% | h-poly-IgG Yield (%) [3]: 100%

COc1ccc(NC(=O)c2cc(C)n(C)n2)cc1C(=O)NCCCN [Ligand L33, 5-(1,5-Dimethylpyrazol-3-yl)carboxamido-2-methoxybenzoic acid N-(3-aminopropyl)amide]
Palivizumab Bound (%) (Palivizumab): 33% | Palivizumab Yield (%) (Palivizumab): 31% | HCP Bound (%) (host cell proteins (HCP); host cell proteins): 17% | Selectivity (Bevacizumab [1]): 5.8 | Bevacizumab IgG Bound (%) (Bevacizumab [2]; [4]): 99% | Bevacizumab IgG Yield (%) (Bevacizumab [2]; [5]): 83% | Tocilizumab Bound (%) (Tocilizumab): 48% | Tocilizumab Yield (%) (Tocilizumab): 51% | h-poly-IgG Bound (%) [3]: 51% | h-poly-IgG Yield (%) [3]: 39%

COc1ccc(NC(=O)c2cc(-c3ccco3)ccn2)cc1C(=O)NCCCN [Ligand L52, 5-[4-(2-Furyl)pyridin-2-ylcarboxamido]-2-methoxybenzoic acid (3-amino-1-propyl)amide]
Palivizumab Bound (%) (Palivizumab): 100% | Palivizumab Yield (%) (Palivizumab): 83% | HCP Bound (%) (host cell proteins (HCP); host cell proteins): 41% | Selectivity (Bevacizumab [1]): 2.4 | Bevacizumab IgG Bound (%) (Bevacizumab [2]; [4]): 100% | Bevacizumab IgG Yield (%) (Bevacizumab [2]; [5]): 99% | Tocilizumab Bound (%) (Tocilizumab): 100% | Tocilizumab Yield (%) (Tocilizumab): 100% | h-poly-IgG Bound (%) [3]: 100% | h-poly-IgG Yield (%) [3]: 100%

COc1ccc(NC(=O)c2nc3ccccc3[nH]2)cc1C(=O)NCCCN [Ligand L47, 5-(1H-Benzimidazol-2-ylcarboxamido)-2-methoxybenzoic acid (3-amino-1-propyl)amide]
Palivizumab Bound (%) (Palivizumab): 85% | Palivizumab Yield (%) (Palivizumab): 85% | HCP Bound (%) (host cell proteins (HCP); host cell proteins): 35% | Selectivity (Bevacizumab [1]): 2.9 | Bevacizumab IgG Bound (%) (Bevacizumab [2]; [4]): 100% | Bevacizumab IgG Yield (%) (Bevacizumab [2]; [5]): 97% | Tocilizumab Bound (%) (Tocilizumab): 100% | Tocilizumab Yield (%) (Tocilizumab): 100% | h-poly-IgG Bound (%) [3]: 71% | h-poly-IgG Yield (%) [3]: 65%

COc1ccc(NC(=O)c2cn3ccsc3n2)cc1C(=O)NCCOCCOCC(=O)NCCCN [Ligand L77, 8-[5-(Imidazo-[2,1-b]thiazol-6-ylcarboxamido)-2-methoxyphenylcarboxamido]-3,6-dioxaoctanoic acid (3-amino-1-propyl)amide]
Palivizumab Bound (%) (Palivizumab; [6]): 55% | Palivizumab Yield (%) (Palivizumab; mass eluted / mass injected): 55% | HCP Bound (%) (host cell proteins (HCP); [7]): 10% | Selectivity (Bevacizumab [1]; [8]): 10.0 | Bevacizumab IgG Bound (%) (Bevacizumab [2]; [9]): 100% | Bevacizumab IgG Yield (%) (Bevacizumab [2]; [10]): 96% | Tocilizumab Bound (%) (Tocilizumab; [6]): 80% | Tocilizumab Yield (%) (Tocilizumab; mass eluted / mass injected): 80% | h-poly-IgG Bound (%) [3, 6]: 65% | h-poly-IgG Yield (%) ([3]; mass eluted / mass injected): 65%

COc1ccc(NC(=O)c2cn3ccsc3n2)cc1C(=O)NCCCN [Ligand L37, 5-(Imidazo[2,1-b]thiazol-6-yl)carboxamido-2-methoxybenzoic acid N-(3-aminopropyl)amide]
Palivizumab Bound (%) (Palivizumab): 92% | Palivizumab Yield (%) (Palivizumab): 87% | HCP Bound (%) (host cell proteins (HCP); host cell proteins): 29% | Selectivity (Bevacizumab [1]): 3.4 | selectivity index (Bevacizumab [1]; fraction of bound Bevacizumab whole IgG divided by fraction of bound HCP, truncated beyond 10): 3.4 | Bevacizumab IgG Bound (%) (Bevacizumab [2]; [4]): 100% | Bevacizumab IgG Yield (%) (Bevacizumab [2]; [5]): 92% | Tocilizumab Bound (%) (Tocilizumab): 99% | Tocilizumab Yield (%) (Tocilizumab): 95% | h-poly-IgG Bound (%) [3]: 94% | h-poly-IgG Yield (%) [3]: 70%
